Patent US20210329924A1, “METAL-BASED ANTIMICROBIAL COMPOSITION AND METHOD OF USING” (Microbonds Inc., priority 2020, published 2021)

Legend:
MRSA (Staphylococcus) = assay: Antimicrobial kill efficacy test on treated substrate (MRSA); assay type: cell-based; conditions: white cotton duvet, 60 C.-100 C., 1 hr
E. Coli (OD600 1.5) = assay: Antimicrobial kill efficacy test on treated substrate (E. Coli); assay type: cell-based; conditions: 1 hr; for Efficacy test Pass: 20 C.
Source text: The 100000 ppm stock solution is subsequently diluted to the silver metal loading concentrations ranging from 3000 ppm down to 10 ppm, as shown in table 1 (the final usage concentration). The solutions are then applied onto a standard fabric substrate, such as white cotton textile and tested for various characteristics. The substrates, after being treated with the solution, are coated with standardized microbes, such as E. Coli or MRSA and tested for antimicrobial kill efficacy. The treated substrates are subjected to a wash test to determine if the silver metal still remains adhered to the fabric after multiple washes. For high silver metal ppm fabrics, it is easy to determine if the color of the stain fades or washes out over time. For low-ppm, non-stained items, the substrate is subjected to a digestion method to calculate the silver concentration per unit area after a number of washes to determine if the silver is remaining stable or is washing out.

[1] = 10 ppm silver metal loading, white cotton fabric
[2] = 20 ppm silver metal loading, white cotton fabric
[3] = 100 ppm silver metal loading, white cotton fabric
[4] = 500 ppm silver metal loading, white cotton fabric
[5] = 1000 ppm silver metal loading, white cotton fabric

[Cu(NH3)4(H2O)n]SO4 [Example 8]
Efficacy test Pass (MRSA (Staphylococcus); 10 ppm zinc metal loading): No
Efficacy test Pass (MRSA (Staphylococcus); 20 ppm zinc metal loading): Yes
Efficacy test Pass (MRSA (Staphylococcus); 100 ppm zinc metal loading): Yes
Efficacy test Pass (MRSA (Staphylococcus); 500 ppm zinc metal loading): Yes
Efficacy test Pass (MRSA (Staphylococcus); 1000 ppm zinc metal loading): Yes

[Ag(NH3)2]-fluoride [Example 4]
Efficacy test Pass (E. Coli (OD600 1.5); 10 ppm silver metal loading, white Coolmax polyester fabric): No
Efficacy test Pass (E. Coli (OD600 1.5); 20 ppm silver metal loading, white Coolmax polyester fabric): Yes
Efficacy test Pass (E. Coli (OD600 1.5); 100 ppm silver metal loading, white Coolmax polyester fabric): Yes
Efficacy test Pass (E. Coli (OD600 1.5); 500 ppm silver metal loading, white Coolmax polyester fabric): Yes
Efficacy test Pass (E. Coli (OD600 1.5); 1000 ppm silver metal loading, white Coolmax polyester fabric): Yes
Efficacy test Pass (MRSA (Staphylococcus); 10 ppm copper metal loading): Yes
Efficacy test Pass (MRSA (Staphylococcus); 20 ppm copper metal loading): Yes
Efficacy test Pass (MRSA (Staphylococcus); 100 ppm copper metal loading): Yes
Efficacy test Pass (MRSA (Staphylococcus); 500 ppm copper metal loading): Yes
Efficacy test Pass (MRSA (Staphylococcus); 1000 ppm copper metal loading): Yes

[Ag(NH3)2]-oxalate [Example 3]
Efficacy test Pass (E. Coli (OD600 1.5); [1]): No
Efficacy test Pass (E. Coli (OD600 1.5); [2]): Yes
Efficacy test Pass (E. Coli (OD600 1.5); [3]): Yes
Efficacy test Pass (E. Coli (OD600 1.5); [4]): Yes
Efficacy test Pass (E. Coli (OD600 1.5); [5]): Yes

[Ag(NH3)2]-formate [Example 6]
Efficacy test Pass (E. Coli (OD600 1.5); 10 ppm silver metal loading, Substrate = Dark Coolmax polyester fabric / Hand (Example 6: on skin)): No
Efficacy test Pass (E. Coli (OD600 1.5); 20 ppm silver metal loading, Substrate = Dark Coolmax polyester fabric / Hand (Example 6: on skin)): Yes
Efficacy test Pass (E. Coli (OD600 1.5); 100 ppm silver metal loading, Substrate = Dark Coolmax polyester fabric / Hand (Example 6: on skin)): Yes
Efficacy test Pass (E. Coli (OD600 1.5); 500 ppm silver metal loading, Substrate = Dark Coolmax polyester fabric / Hand (Example 6: on skin)): Yes
Efficacy test Pass (E. Coli (OD600 1.5); 1000 ppm silver metal loading, Substrate = Dark Coolmax polyester fabric / Hand (Example 6: on skin)): Yes

[Ag(NH3)2]-carbonate [Example 1]
Efficacy test Pass? (E. Coli (OD600 1.5); [1]): No
Efficacy test Pass? (E. Coli (OD600 1.5); [2]): Yes
Efficacy test Pass? (E. Coli (OD600 1.5); [3]): Yes
Efficacy test Pass? (E. Coli (OD600 1.5); [4]): Yes
Efficacy test Pass? (E. Coli (OD600 1.5); [5]): Yes

[Ag(NH3)2]-formate [Example 5]
Efficacy test Pass (E. Coli (OD600 1.5); 10 ppm silver metal loading, dark Coolmax polyester fabric): No
Efficacy test Pass (E. Coli (OD600 1.5); 20 ppm silver metal loading, dark Coolmax polyester fabric): Yes
Efficacy test Pass (E. Coli (OD600 1.5); 100 ppm silver metal loading, dark Coolmax polyester fabric): Yes
Efficacy test Pass (E. Coli (OD600 1.5); 500 ppm silver metal loading, dark Coolmax polyester fabric): Yes
Efficacy test Pass (E. Coli (OD600 1.5); 1000 ppm silver metal loading, dark Coolmax polyester fabric): Yes
